According to patent US12435090B2, “Compounds, pharmaceutical compositions, and methods of preparing compounds and of their use” (Repare Therapeutics Inc., priority 2021, dated 2025):

Biological target: recombinant human Myt1 (Homo sapiens (Human), UniProt Q99640)
Assay: Myt1 enzymatic assay (ADP-Glo kinase assay)
Assay type: biochemical
Conditions: 18 nM enzyme, 10 uM ATP
Experimental: Detection of Myt1 kinase activity utilized a recombinant human Myt1 kinase assay measuring the hydrolysis of ATP using a commercially available ADP-Glo Assay (ADP-Glo™ Kinase Assay from Promega, 10 000 assays, #V9102). […] After this, 5 μL of compounds (diluted in reaction buffer to 0.5% DMSO) was added to the microplate and the plate was spun briefly and incubated at 22° C. for 15 minutes. Ultra-Pure Adenosine Triphosphate (ATP) solution (ADP-Glo kit from Promega) was diluted in reaction buffer and 5 μL was added to the microplate, spun down briefly and incubated for 60 minutes at 30° C. […] After the 60-minute incubation, 15 µL of ADP-Glo reagent was added and the plate was spun briefly and sealed and incubated in the dark for 40 minutes at 22° C. […] Luminescence was read using the Envision (250 ms integration). The IC50 and the % max inhibition were calculated for each inhibitor compound tested.

Sequence of recombinant human Myt1 (Q99640 whole entry): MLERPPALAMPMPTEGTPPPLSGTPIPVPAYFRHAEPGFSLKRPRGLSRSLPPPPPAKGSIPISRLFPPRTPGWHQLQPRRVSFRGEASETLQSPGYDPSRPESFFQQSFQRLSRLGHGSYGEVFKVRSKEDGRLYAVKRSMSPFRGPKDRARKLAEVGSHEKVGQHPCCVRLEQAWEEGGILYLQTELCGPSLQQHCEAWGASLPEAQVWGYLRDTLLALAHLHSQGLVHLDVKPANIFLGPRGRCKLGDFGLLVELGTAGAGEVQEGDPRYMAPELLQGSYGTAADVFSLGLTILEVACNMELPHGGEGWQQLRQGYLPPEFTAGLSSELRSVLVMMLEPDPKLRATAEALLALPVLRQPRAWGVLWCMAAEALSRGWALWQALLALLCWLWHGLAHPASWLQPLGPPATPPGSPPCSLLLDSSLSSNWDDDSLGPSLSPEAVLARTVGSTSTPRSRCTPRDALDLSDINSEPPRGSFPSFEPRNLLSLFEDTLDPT

SMILES	IC50 [µM]
Cc1ccc(O)c(C)c1-n1c(N)c(C(N)=O)c2cc(C(C)(C)O)cnc21 [Compound 131]	< 0.01
Cc1ccc(O)c(C)c1-n1c(N)c(C(N)=O)c2nc(C3(C(F)(F)F)CC3)cnc21 [Compound 198, 6-amino-5-(3-hydroxy-2,6-dimethyl-phenyl)-2-[1-(trifluoromethyl)cyclopropyl]pyrrolo[2,3-b]pyrazine-7-carboxamide]	< 0.01
CCN(CC)c1cnc2c(n1)c(C(N)=O)c(N)n2-c1c(C)ccc(O)c1C [Compound 88]	< 0.01
Cc1ccc(O)c(C)c1-n1c(N)c(C(N)=O)c2ncc(C#CC3(O)CCC(F)(F)CC3)nc21 [Compound 242, 6-amino-3-[2-(4,4-difluoro-1-hydroxy-cyclohexyl)ethynyl]-5-(3-hydroxy-2,6-dimethyl-phenyl) pyrrolo[2,3-b]pyrazine-7-carboxamide]	< 0.01
Cc1ccc(O)c(Cl)c1-n1c(N)c(C(N)=O)c2nc(C3CC3)cnc21 [Compound 104]	< 0.01
Cc1ccc(O)c(C)c1-n1c(N)c(C(N)=O)c2cc(N3CCCC3=O)cnc21 [Compound 298]	< 0.01
Cc1ccc(O)c(Br)c1-n1c(N)c(C(N)=O)c2cc(Cl)cnc21 [Compound 289]	< 0.01
Cc1nc2c(C(N)=O)c(N)n(-c3c(Cl)ccc(O)c3C)c2nc1C [Compound 168]	< 0.01
Cc1ccc(O)c(C)c1-n1c(N)c(C(N)=O)c2ncc(C#CC3(O)CCOCC3)nc21 [Compound 231]	< 0.01
Cc1ccc(O)c(C)c1-n1c(N)c(C(N)=O)c2cc(C(C)C)cnc21 [Compound 138]	< 0.01
Cc1ccc(O)cc1-c1cn(C(N)=O)c2cc(Cl)cnc12 [Compound 345, 6-chloro-3-(5-hydroxy-2-methyl-phenyl) pyrrolo[3,2-b]pyridine-1-carboxamide]	0.323

The next lines start with the values.

IC50 [µM]	SMILES
< 0.01	Cc1ccc(O)c(C)c1-n1c(N)c(C(N)=O)c2nc(N3CCCCC3)cnc21 [Compound 81]
> 5	Cc1ccc(O)c(C)c1-n1c(N)c(S(C)(=O)=O)c2nc(-c3cnccn3)cnc21 [Compound 278]
< 0.01	Cc1ccc(O)c(C)c1-n1c(N)c(C(N)=O)c2nc(N3CCCC3)cnc21 [Compound 85]
3.23	Cc1ncc(O)cc1-n1c(N)c(C(N)=O)c2nc(C)c(C)nc21 [Compound 262]
< 0.01	C=Cc1cnc2c(n1)c(C(N)=O)c(N)n2-c1c(C)ccc(O)c1C [Compound 259]
< 0.01	Cc1ccc(O)c(C)c1-n1c(N)c(C(N)=O)c2cc(-c3nccs3)cnc21 [Compound 308]
0.106	NC(=O)c1c(N)n(-c2cccc3[nH]ncc23)c2ncc(C3CC3)nc12 [Compound 330, 6-amino-2-cyclopropyl-5-(1H-indazol-4-yl)pyrrolo[2,3-b]pyrazine-7-carboxamide]
< 0.01	Cc1ccc(O)c(C)c1-n1c(N)c(C(N)=O)c2nc(-c3cncs3)cnc21 [Compound 37]
< 0.01	Cc1ccc(O)c(C)c1-n1c(N)c(C(N)=O)c2nc(C3=CCC(C(=O)N(C)C)CC3)cnc21 (stereo not shown) [Compound 58]
< 0.01	Cc1c(O)ccc(Cl)c1-n1c(N)c(C(N)=O)c2nc(-c3nccs3)cnc21 [Compound 42]
< 0.01	Cc1ccc(O)c(C)c1-n1c(N)c(C(N)=O)c2nc(-c3ccccn3)cnc21 [Compound 34]
0.142	NC(=O)c1c(N)n(-c2cccc3[nH]ncc23)c2ncc(-c3nccs3)nc12 [Compound 332]
< 0.01	Cc1ccc(O)c(C)c1-n1c(N)c(C(N)=O)c2nc(C(N)=O)cnc21 [Compound 220, 6-amino-5-(3-hydroxy-2,6-dimethyl-phenyl) pyrrolo[2,3-b]pyrazine-2,7-dicarboxamide]
< 0.01	Cc1ccc(O)c(C)c1-n1c(N)c(C(N)=O)c2nc(C3=CCCCC3)cnc21 [Compound 86]
